# Read-outs that look alike come from different tables or passages of the source.
# Assays:
# delta opioid receptor = biological target: T1, delta opioid receptor (Rattus norvegicus, UniProt P33533); experiment: Rat Brain Delta Opioid Receptor Binding Assay
# T1 construct: from tissue; host or cells: forebrain of male Wistar rats (Charles River)
# mu opioid receptor = biological target: T2, mu opioid receptor (Rattus norvegicus, UniProt P33535); experiment: Rat Brain Mu Opioid Receptor Binding Assay
# T2 construct: Following incubation with the mu selective peptide ligand, ˜0.8 nM [^3H]DAMGO; from tissue; host or cells: forebrain of male Wistar rats (Charles River)
# T2 sequence (P33535 whole entry): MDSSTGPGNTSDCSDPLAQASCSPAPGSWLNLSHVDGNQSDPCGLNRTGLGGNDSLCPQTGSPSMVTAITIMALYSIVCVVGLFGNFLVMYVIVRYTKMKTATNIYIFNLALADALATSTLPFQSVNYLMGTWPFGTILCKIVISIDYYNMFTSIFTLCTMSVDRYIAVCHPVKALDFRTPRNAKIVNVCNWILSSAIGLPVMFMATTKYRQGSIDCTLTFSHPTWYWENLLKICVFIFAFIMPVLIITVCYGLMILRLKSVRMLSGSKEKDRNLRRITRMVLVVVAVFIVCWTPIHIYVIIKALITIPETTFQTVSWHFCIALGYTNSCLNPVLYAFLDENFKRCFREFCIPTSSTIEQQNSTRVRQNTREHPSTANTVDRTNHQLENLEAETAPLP
# [1] = rat forebrain membranes, [3H]DAMGO, read-out: mu (Ki)
# T1 sequence (P33533 whole entry): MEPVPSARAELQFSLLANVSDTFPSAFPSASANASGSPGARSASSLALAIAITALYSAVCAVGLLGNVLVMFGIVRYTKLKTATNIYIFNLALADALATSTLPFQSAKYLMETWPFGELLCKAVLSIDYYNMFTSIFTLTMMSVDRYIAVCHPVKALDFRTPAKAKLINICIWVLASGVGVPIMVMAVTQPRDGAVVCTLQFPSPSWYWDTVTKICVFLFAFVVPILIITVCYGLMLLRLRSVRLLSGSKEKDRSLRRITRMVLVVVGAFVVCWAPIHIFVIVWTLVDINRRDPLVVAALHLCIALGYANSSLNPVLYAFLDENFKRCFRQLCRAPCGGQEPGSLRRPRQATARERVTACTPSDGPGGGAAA
Structure (SMILES),Ki (delta opioid receptor) [nM],other results
"CC(=O)Nc1ccccc1-c1ccc2c(c1)Oc1ccccc1C2C1CC2CCC(C1)N2Cc1ccccc1 (centres unmarked) [Compound 16b, N-{2-[9-(8-Benzyl-8-aza-bicyclo[3.2.1]oct-3-yl)-9H-xanthen-3-yl]-phenyl}-acetamide]",> 10000,Ki (mu opioid receptor): > 10 µM
"CC(=O)Nc1ccccc1-c1ccc2c(c1)Oc1ccccc1C2C1CC2CCC(C1)N2CCc1ccccc1 (centres unmarked) [Compound 17b, N-{2-[9-(8-Phenethyl-8-aza-bicyclo[3.2.1]oct-3-yl)-9H-xanthen-3-yl]-phenyl}-acetamide]",64.8,Ki (mu opioid receptor; [1]): 0.116 µM
"c1ccc(CCN2C3CCC2CC(C2c4ccccc4Oc4cc(-c5ccncc5)ccc42)C3)cc1 (centres unmarked) [Compound 24b, 8-Phenethyl-3-(3-pyridin-4-yl-9H-xanthen-9-yl)-8-aza-bicyclo[3.2.1]octane]",1590,Ki (mu opioid receptor): 0.196 µM
"c1ccc2c(c1)Oc1cc(-c3nnn[nH]3)ccc1C2C1CC2CCC(C1)N2 (centres unmarked) [Compound 5j, 3-[3-(1H-Tetrazol-5-yl)-9H-xanthen-9-yl]-8-aza-bicyclo[3.2.1]octane]",477,Ki (mu opioid receptor): 4.78 µM
"COc1cccc2c1Oc1cc(-c3cccnc3)ccc1C2C1CC2CCC(C1)N2 (centres unmarked) [Compound 7k, 3-(5-Methoxy-3-pyridin-3-yl-9H-xanthen-9-yl)-8-aza-bicyclo[3.2.1]octane]",–,"Ki (delta opioid receptor; rat forebrain membranes, [3H]DPDPE or [3H]naltrindole, read-out: delta (Ki)): 655 nM; Ki (mu opioid receptor; [1]): 7.74 µM"
"CCN(CC)C(=N)c1ccc2c(c1)Oc1ccccc1C2C1CC2CCC(C1)N2 (centres unmarked) [Compound 4m, 9-(8-Aza-bicyclo[3.2.1]oct-3-yl)-N,N-diethyl-9H-xanthene-3-carboxamidine]",208,–
"CCN(CC)C(=N)c1ccc2c(c1)Oc1ccccc1C2C1CC2CCC(C1)N2Cc1ccoc1 (centres unmarked) [Compound 5m, N,N-Diethyl-9-(8-furan-3-ylmethyl-8-aza-bicyclo[3.2.1]oct-3-yl)-9H-xanthene-3-carboxamidine]",234,–
"CCN(CC)C(=N)c1ccc2c(c1)Oc1ccccc1C2C1CC2CCC(C1)N2Cc1ccccc1 (centres unmarked) [Compound 8m, 9-(8-Benzyl-8-aza-bicyclo[3.2.1]oct-3-yl)-N,N-diethyl-9H-xanthene-3-carboxamidine]",349,–
"CC(=O)Nc1ccccc1-c1ccc2c(c1)Oc1c(O)cccc1C2C1CC2CCC(C1)N2Cc1ccoc1 (centres unmarked) [Compound 4l, N-{2-[9-(8-Furan-3-ylmethyl-8-aza-bicyclo[3.2.1]oct-3-yl)-5-hydroxy-9H-xanthen-3-yl]-phenyl}-acetamide]",22.2,–
"c1cncc(-c2ccc3c(c2)Oc2ccccc2C3C2CC3CCC(C2)N3Cc2ncc[nH]2)c1 (centres unmarked) [Compound 26b, 8-(1H-Imidazol-2-ylmethyl)-3-(3-pyridin-3-yl-9H-xanthen-9-yl)-8-aza-bicyclo[3.2.1]octane]",338,–
"c1ccc(CCN2C3CCC2CC(C2c4ccccc4Oc4cc(-c5nnn[nH]5)ccc42)C3)cc1 (centres unmarked) [Compound 10j, 8-Phenethyl-3-[3-(1H-tetrazol-5-yl)-9H-xanthen-9-yl]-8-aza-bicyclo[3.2.1]octane]",1150,–
"O=c1[nH]c(-c2ccc3c(c2)Oc2ccccc2C3C2CCNCC2)no1 (centres unmarked) [Compound 2n, 3-(9-Piperidin-4-yl-9H-xanthen-3-yl)-4H-[1,2,4]oxadiazol-5-one]",1300,–
"CCN(CC)C(=N)c1ccc2c(c1)Oc1ccccc1C2C1CC2CCC(C1)N2CCc1ccccc1 (centres unmarked) [Compound 9m, N,N-Diethyl-9-(8-phenethyl-8-aza-bicyclo[3.2.1]oct-3-yl)-9H-xanthene-3-carboxamidine]",903,–
"Oc1cccc2c1Oc1cc(-c3cccnc3)ccc1C2C1CC2CCC(C1)N2CCc1ccccc1 (centres unmarked) [Compound 13k, 9-(8-Phenethyl-8-aza-bicyclo[3.2.1]oct-3-yl)-6-pyridin-3-yl-9H-xanthen-4-ol]",281,–
"Oc1cccc2c1Oc1cc(-c3cccnc3)ccc1C2C1CC2CCC(C1)N2Cc1ccccc1 (centres unmarked) [Compound 12k, 9-(8-Benzyl-8-aza-bicyclo[3.2.1]oct-3-yl)-6-pyridin-3-yl-9H-xanthen-4-ol]",39.4,–

# — patent publication US7589104B2, “Tricyclic-bridged piperidinyline derivatives as §-opioid modulators” (Janssen Pharmaceutica NV, priority 2004, dated 2009)
